Measured values from patent US20110160279A1, “METHODS FOR TREATMENT AND PREVENTION OF OTOTOXICITY BY siRNA” (BOARD OF TRUSTEES OF SOUTHERN ILLINOIS UNIVERSITY, priority 2007, published 2011).

Tests used:
Bax = Bax protein expression in UB/OC-1 cells; assay type: cell-based, mouse; conditions: pretreatment (capsazepine 10 μM; BAPTA-AM 30 min) before cisplatin
Procedure: (§1) The increases in these proteins were attenuated by capsazepine (10 μM), implicating TRPV1 in this process.

p53 = p53 protein expression in UB/OC-1 cells; assay type: cell-based, mouse; conditions: pretreatment (capsazepine 10 μM; BAPTA-AM 30 min) before cisplatin
Procedure: as §1

UB/OC-1 = assay: Gentamicin-induced ROS generation by DCF2DA in UB/OC-1 cells; assay type: cell-based, mouse; conditions: capsazepine 10 μM or ruthenium red 20 μM for 15 min, then gentamicin (20 μM) 30 min
Procedure: FIG. 5 depicts that inhibition of TRPV1 reduces generation of reactive oxygen species (ROS) by aminoglycosides. UB/OC-1 cultures were pretreated with vehicle (control), capsazepine (10 μM) or ruthenium red (20 μM) for 15 min prior to the administration of vehicle (control) or gentamicin (20 μM) for 30 min and the generation of reactive oxygen species was determined by the fluorescence of 2′,7′-dichlorodihydrofluorescein diacetate (DCF2DA) using confocal microscopy.
In this study, the mouse organ of Corti cell line (UB/OC-1) was used to examine the properties of aminoglycoside-induced ROS generation. For these experiments, cells were grown on coverslips to 60-80% confluency, then pretreated with vehicle (control and gentamicin groups), capsazepine (10 μM) or ruthenium red (20 μM) for 15 min. This was followed by vehicle (control) or gentamicin for 30 min. Cells were then loaded with 2′,7′-dichlorodihydrofluorescein diacetate (DCF2DA) and imaged by confocal microscopy.

UB-OC1 cells = assay: Apoptosis by TUNEL staining in UB-OC1 cells; assay type: cell-based, mouse; conditions: for apoptotic cells (TUNEL), of total cells: pretreated 30 min with TRPV1 inhibitor, then cisplatin 20 μM 24 h
Procedure: Immortalized organ of Corti cells derived from the mouse, UB/OC-1 cells, were obtained from Dr. Matthew Holley (Institute of Molecular Physiology, Addison Building, Western Bank, Sheffield, UK) and cultured in RPMI 1640 supplemented with 10% Fetalclone II (Hyclone, Logan, Utah) serum and penicillin-streptomycin. Cultures were grown in a 33° C. incubator in 10% CO2.
Frag-EL DNA fragmentation kit and H2DCFDA dye was purchased from (Calbiochem, San Diego, Calif.). TRPV1 antibody (Neuromics, Edina, Minn.) and secondary goat anti rabbit antibody was purchased from Santa Cruz Biotechnology (Santa Cruz, Calif.).
as §1

TRPV1 mRNA = assay: Real time RT-PCR of TRPV1 mRNA in rat cochlea; assay type: in vivo
Procedure: (§2) Animal procedures and sample collection: Male Wistar rats were used for this study. Pre-ABR's were performed 2-3 days before round window application of siTRPV1 or PBS. […] The cochleas were dissected and used for the preparation of total RNA or total protein extracts, or perfused with 2.5% glutaraldehyde for morphological studies by Scanning Electron Microscopy (SEM's) or 4% paraformaldehyde for immunocytochemistry.
(§3) RNA was isolated by adding 1 ml TR1 reagent to 100 mg of cochlear or cortical tissue or 0.5 ml TR1 reagent (Sigma, St. Louis, Mo.) per well of each six well plate, according to the manufacturer's instructions.
(§4) Real time reverse transcriptase polymerase chain reaction (RT-PCR): One microgram of total RNA was converted to cDNA using iScript cDNA Synthesis Kit (Bio-Rad, Hercules, Calif.), and qRTPCR was performed as described by (Mukherjea et al, 2006). Gene specific primer pairs were used for the various reactions and mRNA expression levels were normalized to the levels of GAPDH house keeping gene.
(§5) The rodent set of primers and siRNA were based on the homologous sequences in the rat and mouse cDNA sequences. The primers were purchased from Sigma Genosys (St. Louis, Mo.). Purified siRNA duplexes were purchased from Qiagen (Valencia, Calif.).

NOX3 mRNA = assay: Real time RT-PCR of NOX3 mRNA in rat cochlea; assay type: in vivo
Procedure: as §2, §3, §4, §5

SMILES	effect on cisplatin-induced increase in Bax (Bax)	effect on cisplatin-induced increase in p53 (p53)	effect on ROS generation of the gentamicin group (UB/OC-1)	effect on cell apoptosis compared to vehicle-treated control (UB-OC1 cells)	apoptotic cells (TUNEL), of total cells (UB-OC1 cells) [%]	effect on basal expression of TRPV1 (TRPV1 mRNA; rat cochlea, lipoic acid alone, not statistically significant)	effect on cisplatin-induced TRPV1 expression in vivo (TRPV1 mRNA; rats pretreated with lipoic acid before cisplatin, 72 hrs)	effect on basal expression of NOX3 (NOX3 mRNA; lipoic acid alone)	effect on the increase in NOX3 by cisplatin (NOX3 mRNA; lipoic acid pretreatment, cisplatin 72 hrs)
CC(=O)OCOC(=O)CN(CC(=O)OCOC(C)=O)c1ccccc1OCCOc1ccccc1N(CC(=O)OCOC(C)=O)CC(=O)OCOC(C)=O [BAPTA-AM]	substantial reduction	down-regulated the expression of these pro-apoptotic genes to control levels							
Oc1cc2c(cc1O)CN(C(=S)NCCc1ccc(Cl)cc1)CCC2 [capsazepine]	attenuated	attenuated	suppressed	Neither capsazepine nor ruthenium red alone had any significant effect	~7				
N.N.N.N.N.N.N.N.N.N.N.N.N.N.[Cl-].[Cl-].[Cl-].[Cl-].[Cl-].[Cl-].[O-2].[O-2].[Ru+3].[Ru+3].[Ru+4] [ruthenium red]			suppressed	Neither capsazepine nor ruthenium red alone had any significant effect	~7				
O=C(O)CCCC[C@@H]1CCSS1 (racemic) [lipoic acid]						tendency to reduce basal expression of TRPV1	completely abolished	significantly reduced	attenuated
